From ChEMBL document CHEMBL1126500, “Kinase bypass: A new strategy for anti-HIV drug design” (Bioorg Med Chem Lett, 1993) come the findings set out here.

A short description of series [1]: Toxic dose required to inhibit the replication of HIV-1 in C8166 T-cells. Format: ADME, cell-based. To be noted: human, read-out: TD50 (the source's name).
The subject of another series is C8166. As to the kind of experiment: Compound was tested for its ability to inhibit the replication of HIV-1 in C8166 T-cells. It is filed as functional. To be noted: Homo sapiens, read-out: ED50 (the source's name).

Each structure is given as a SMILES string.

For `CC(=O)O[C@H]1C[C@H](n2cc(C)c(=O)[nH]c2=O)O[C@@H]1CO`, the CC50 in series [1] was > 200 µM. In the series on C8166, the EC50 is > 200 µM.

Take `Cc1cn([C@H]2C[C@H](OC(=O)C(Cl)(Cl)Cl)[C@@H](COP(=O)(OCC(Cl)(Cl)Cl)OCC(Cl)(Cl)Cl)O2)c(=O)[nH]c1=O`: in series [1], the CC50 was > 200 µM. Further, the EC50 in the series on C8166 was 50 µM.

For `Cc1cn([C@H]2C[C@H](OC(=O)C(C)C)[C@@H](COP(=O)(OCC(Cl)(Cl)Cl)OCC(Cl)(Cl)Cl)O2)c(=O)[nH]c1=O`, in series [1], the CC50 was > 200 µM. In the series on C8166, the EC50 is 40 µM.

For the compound `Cc1cn([C@H]2C[C@H](OC=O)[C@@H](COP(=O)(OCC(Cl)(Cl)Cl)OCC(Cl)(Cl)Cl)O2)c(=O)[nH]c1=O`, the CC50 in series [1] is > 200 µM. Besides, the EC50 with C8166 amounted to 100 µM.

As to `CC(=O)O[C@H]1C[C@H](n2cc(C)c(=O)[nH]c2=O)O[C@@H]1COP(=O)(OCC(Cl)(Cl)Cl)OCC(Cl)(Cl)Cl`, the CC50 in series [1] is > 200 µM. Also, the EC50 in the series on C8166 is 30 µM.

For the compound `CCC(=O)O[C@H]1C[C@H](n2cc(C)c(=O)[nH]c2=O)O[C@@H]1COP(=O)(OCC(Cl)(Cl)Cl)OCC(Cl)(Cl)Cl`, the CC50 in series [1] came out at 80 µM. Also, the EC50 in the series with C8166 is 35 µM.

Take `Cc1cn([C@H]2C[C@H](OC(=O)CCl)[C@@H](COP(=O)(OCC(Cl)(Cl)Cl)OCC(Cl)(Cl)Cl)O2)c(=O)[nH]c1=O`: the CC50 in series [1] was determined as 50 µM. Besides, the EC50 in the series on C8166 came to 50 µM.

With `CCCC(=O)O[C@H]1C[C@H](n2cc(C)c(=O)[nH]c2=O)O[C@@H]1COP(=O)(OCC(Cl)(Cl)Cl)OCC(Cl)(Cl)Cl`, in series [1], the CC50 is 80 µM. For the same compound, the EC50 in the series on C8166 was determined as 75 µM.

Take `Cc1cn([C@H]2C[C@H](N=[N+]=[N-])[C@@H](CO)O2)c(=O)[nH]c1=O` [ZIDOVUDINE]: in series [1], the CC50 was > 200 µM. In the series with C8166, the EC50 is 0.01 µM.
